Reference: the NIST ThermoML archive (doi:10.1016/j.jct.2016.10.047)

Experiment: refractive index (other wavelength) (dimensionless); xn = mol fraction of the nth substance listed
Conditions: 94 kPa, Liquid, Wavelength=632.8 nm, minimum deviation method

CCCCCCCC[n+]1ccn(C)c1.F[P-](F)(F)(F)(F)F [1-octyl-3-methylimidazolium hexafluorophosphate] + CC(C)O
Conditions | refractive index
298.19 K, x1 = 1 | 1.4215
300.2 K, x1 = 1 | 1.421
302.19 K, x1 = 1 | 1.4204
304.2 K, x1 = 1 | 1.4199
306.22 K, x1 = 1 | 1.4193
307.22 K, x1 = 0.5 | 1.4091
307.22 K, x1 = 0.8 | 1.4159
307.28 K, x1 = 0.901 | 1.4177
307.29 K, x1 = 0.601 | 1.4119
307.3 K, x1 = 0.4 | 1.4056
307.3 K, x1 = 0.699 | 1.4141
307.41 K, x1 = 0.3 | 1.4009
308.19 K, x1 = 0.699 | 1.4138
308.21 K, x1 = 0.5 | 1.4088
308.21 K, x1 = 0.601 | 1.4116
308.23 K, x1 = 0.901 | 1.4174
308.24 K, x1 = 1 | 1.4188
308.25 K, x1 = 0.8 | 1.4156
308.29 K, x1 = 0.4 | 1.4053
308.4 K, x1 = 0.3 | 1.4006
309.22 K, x1 = 0.5 | 1.4085
309.24 K, x1 = 0.601 | 1.4113
309.24 K, x1 = 0.8 | 1.4154
309.25 K, x1 = 0.901 | 1.4171
309.27 K, x1 = 0.699 | 1.4135
309.35 K, x1 = 0.4 | 1.405
309.39 K, x1 = 0.3 | 1.4003
309.47 K, x1 = 0.2 | 1.3938
310.24 K, x1 = 0.601 | 1.411
310.25 K, x1 = 0.5 | 1.4082
310.25 K, x1 = 0.8 | 1.4151
310.25 K, x1 = 1 | 1.4183
310.31 K, x1 = 0.699 | 1.4132
310.34 K, x1 = 0.901 | 1.4168
310.36 K, x1 = 0.4 | 1.4047
310.42 K, x1 = 0.3 | 1.3999
310.45 K, x1 = 0.2 | 1.3934
310.49 K, x1 = 0.1 | 1.3838
311.23 K, x1 = 0.601 | 1.4107
311.24 K, x1 = 0.5 | 1.4079
311.25 K, x1 = 0.699 | 1.413
311.25 K, x1 = 0.901 | 1.4166
311.26 K, x1 = 0.8 | 1.4148
311.36 K, x1 = 0.4 | 1.4044
311.46 K, x1 = 0.3 | 1.3996
311.48 K, x1 = 0.2 | 1.3931
311.5 K, x1 = 0.1 | 1.3834
312.22 K, x1 = 0.8 | 1.4146
312.24 K, x1 = 0.601 | 1.4104
312.24 K, x1 = 1 | 1.4178
312.25 K, x1 = 0.5 | 1.4076
312.26 K, x1 = 0.699 | 1.4127
312.35 K, x1 = 0.901 | 1.4163
312.37 K, x1 = 0.4 | 1.4041
312.4 K, x1 = 0.3 | 1.3993
312.47 K, x1 = 0.2 | 1.3927
312.49 K, x1 = 0.1 | 1.383
313.21 K, x1 = 0.601 | 1.4101
313.25 K, x1 = 0.8 | 1.4143
313.26 K, x1 = 0.5 | 1.4073
313.26 K, x1 = 0.901 | 1.416
313.35 K, x1 = 0.4 | 1.4038
313.37 K, x1 = 0.699 | 1.4124
313.43 K, x1 = 0.3 | 1.399
313.49 K, x1 = 0.2 | 1.3924
313.52 K, x1 = 0.1 | 1.3826
314.23 K, x1 = 0.601 | 1.4098
314.23 K, x1 = 0.699 | 1.4121
314.27 K, x1 = 0.5 | 1.407
314.29 K, x1 = 0.8 | 1.414
314.29 K, x1 = 0.901 | 1.4157
314.39 K, x1 = 0.4 | 1.4035
314.46 K, x1 = 0.3 | 1.3986
314.48 K, x1 = 0.2 | 1.392
314.54 K, x1 = 0.1 | 1.3822
315.58 K, x1 = 0.1 | 1.3818
315.58 K, x1 = 0.2 | 1.3916
